ChEMBL document CHEMBL1150055, “New Diol Esters Isolated from Cultures of the Dinoflagellates Prorocentrum lima and Prorocentrum concavum” (J Nat Prod, 1992)
The source made the active and inactive calls. The rule behind the calls is not given here.

What was measured:
[1] = Inhibition of PP1
[2] = Inhibition of PP2A

With `C=C1[C@@H](O)[C@@H]2O[C@]3(CC[C@H](/C=C/[C@@H](C)[C@@H]4CC(C)=C[C@@]5(O[C@H](C[C@@](C)(O)C(=O)OC/C(C)=C/C=C/CCO)CC[C@H]5O)O4)O3)CC[C@H]2O[C@@H]1[C@@H](O)C[C@H](C)[C@H]1O[C@@]2(CCCCO2)CC[C@H]1C` the Activity [1] was “inactive” and the Activity [2] was “inactive”.
For `C=C1[C@@H](O)[C@@H]2O[C@]3(CC[C@H](/C=C/[C@@H](C)[C@@H]4CC(C)=C[C@@]5(O[C@H](C[C@@](C)(O)C(=O)OC/C(C)=C/C=C/CO)CC[C@H]5O)O4)O3)CC[C@H]2O[C@@H]1[C@@H](O)C[C@H](C)[C@H]1O[C@@]2(CCCCO2)CC[C@H]1C`, the Activity [1] was “inactive” and the Activity [2] was “inactive”.
For `C=C1[C@@H](O)[C@@H]2O[C@]3(CC[C@H](/C=C/[C@@H](C)[C@@H]4CC(C)=C[C@@]5(O[C@H](C[C@@](C)(O)C(=O)OC)CC[C@H]5O)O4)O3)CC[C@H]2O[C@@H]1[C@@H](O)C[C@H](C)[C@H]1O[C@@]2(CCCCO2)CC[C@H]1C`, the Activity [1] was “inactive” and the Activity [2] was “inactive”.
